According to patent US20080242594A1, “Methods for Promoting Stem Cell Proliferation and Survival” (priority 2005, published 2008):

How the values were obtained:
HSF6 hES cells = experiment: hES self-renewal over 3 passages; format: cell-based, human; conditions: 3 passages (3 weeks), daily treatments
Description: To assess whether JAK inhibition was consistent with self-renewal of hES cells, HSF6 cells were continuously exposed to the JAK inhibitor by daily additions for three passages as single cells (three weeks) and analyzed for expression of antigens that distinguish the undifferentiated and differentiated states. The cells exposed to the drug, like the FGF2 controls, had normal morphology, were positive for Oct3/4, SSEA4, Tra-1-60, and Tra-1-81, and negative for SSEA1 (FIG. 5f, FIG. 11). To assess their ability to differentiate into neural precursors, embryoid bodies (EBs) were generated and many Sox1+/Nestin+ cells obtained (FIG. 11). Finally, to assess that the cells retained their ability to generate TH+ neurons, direct differentiation protocols were performed; a high proportion of TH+/TUJ1+ cells were obtained (FIG. 5g).

[1] = system: p38, SMAD1/5/8, MSK-1, STAT3 phosphorylation in hES cells; experiment: Signalling immunoblots in hES cells; conditions: absence of MEF, within one hour
Experimental: Immunoblotting: Immunoblotting was performed as previously described (Panchision et al., Genes Dev 15:2094-110, 2001). The following antibodies were used in the experiments described below: pSer473-Akt (92715), pSer308-Akt (9275), pSer2448-mTOR (29715), pThr180/Tyr182-p38 (9211), pSMAD1/5/8 (9511) from Cell Signaling; STAT3 (482), pSer727-STAT3 (8001-R), pTyr705-STAT3 (7993) from Santa Cruz; Sonic Hedgehog (R&D, AF464), nucleostemin (McKay Lab), Hes3 (Chemicon, AB5706), α-tubulin (Sigma, T-6074).
To determine whether in the hES system JAK inhibition reduced p38 activity, cells were treated in the absence of MEF with JAK inhibitor for different times and assayed for p38 phosphorylation.

[2] = system: rat adult subventricular zone central nervous system stem cell cultures; experiment: Survival of adult SVZ CNS stem cell cultures with insulin and Dll4; format: cell-based
Experimental: As there was a tight correlation between the Notch survival pathway and Hes3, it was investigated as to whether Hes3 is a mediator of the Notch pro-survival signalling. It was determined that both insulin and Notch activation promote the survival of foetal and adult neural stem cell cultures and their effects are additive (Tables 8-9).

[3] = system: Primary human central nervous system neural stem cell from pediatric subventricular zones; experiment: Colony generation of primary human neural stem cells; format: cell-based; conditions: expanded in FGF2
Description: Pharmacological Notch activation is beneficial also to primary neural stem cell cultures from non-cancerous human brain. Primary human central nervous system neural stem cell were produced from pediatric subventricular zones. These cells expanded in FGF2, and upon FGF2 withdrawal differentiated to produce colonies containing neurons, astrocytes, and oligodendrocytes (see Table 11). […] FGF2 withdrawal and subsequent differentiation of central nervous system neural stem cell cultures (fetal mouse) regulated Hes3 expression and STAT3 expression and phosphorylation in neurons, astrocytes, oligodendrocytes.

Notch1 = experiment: Notch activation (Notch1IC / Notch ICD) immunocytochemical detection; format: cell-based, mouse; conditions: Insulin withdrawal, 2 days and then treat for 1 h
Description: Antibodies were used that specifically bind: Notch1IC (Chemicon, 5352), GFP (Molecular Probes, A11122), Oct3/4 (Santa Cruz, sc-5279), SSEA1 and SSEA4 (Developmental Studies HybridomaBank), Tra-1-60 (Chemicon, MAB4360), Tra-1-81 (Chemicon, MAB4381), human nestin (Chemicon, MAB5326), Sox-1 (Gift from Dr. R Lovell-Badge), TH (Pel-Freez, P40101-0), Tuj1 (Covance, MMS-435P), rat nestin (McKay Lab), GFAP (Dako, z0334), CNPase (Chemicon, MAB326), BrdU (Accurate, H5903), DCX (Santa Cruz, sc-8066), Sox2 (R&D, MAB2018), Hu (Molecular Probes, A21271).
To assay for Notch activation, cultures were treated with the Notch ligands for 1 hour and Notch1 activation was detected by immunocytochemical staining of Notch1IC (FIG. 1b).
It was determined that insulin facilitates Notch cleavage using immunocytochemical detection.

[4] = system: murine E13.5 cortical stem cell cultures; experiment: Real-time imaging of lineage, death events and cell cycle; format: cell-based, mouse; conditions: from 4 hours after plating, compared to controls
Experimental: FIGS. 1a-1f are a set of images showing that Notch ligands stimulate survival in CNS stem cell (CNS SC) cultures. FIG. 1a is a bar graph […] the effect of Notch activation by Jagged-1, Delta-4, or combination in the presence of FGF2 for 5 days on plating efficiency, colony size, and BrdU incorporation (following a 4 hour BrdU pulse), over control treatments (FGF2 alone) FIG. 1b is a graph showing lineage and death events in murine E13.5 cortical stem cell cultures in the presence of FGF2 or FGF2 and Delta-4 (“D4”), D114 inhibits cell death in real-time cell lineage experiments (“x” marks time of death). CNS stem cells from embryonic day 13.5 mouse cerebral cortex were plated following one passage and visualized in real-time for 36 hours (images were taken every 2 min). Lineage and death events are represented. Cells were cultured in a closed gas chamber at 37° C. and images of selected fields were taken every two minutes. FIG. 1c is a line graph showing accumulative real-time imaging representation of death even times over 36 hours in culture with or without Delta-4. […] Cell cycle durations for the first two divisions are shown. FIG. 1e is a bar graph showing Delta-4 treatment of CNS SC cultures replaced the requirement for insulin in the medium in a plating efficiency assay. […] In the graphs, data represent Means ±standard deviation (SD). […]

| Compound | morphology and antigenic profile (HSF6 hES cells) | p38 phosphorylation [1] | Cell # [2] | colonies containing neurons, astrocytes, and oligodendrocytes [3] | Notch ICD (Notch1) | death events [4] |
| --- | --- | --- | --- | --- | --- | --- |
| CC(C)(C)c1nc2c3ccc(F)cc3c3c(=O)[nH]ccc3c2[nH]1 [JAK Inhibitor, 2-(1,1-Dimethylethyl)-9-fluoro-3,6-dihydro-7H-benz[h]-imidaz[4,5-f]isoquinolin-7-one] | retained normal morphology and antigenic profile of undifferentiated hES cells | significantly reduced p38 phosphorylation |  |  |  |  |
| Delta-4: soluble Notch ligand Delta-4 (1389-D4) from R&D |  |  | High | generated significantly more of these colonies | Low | very few death events were observed |
